According to the NIST ThermoML archive (doi:10.1016/j.fluid.2008.09.010):
Numbers after ± are expanded uncertainties.

Conditions: Liquid; Ebulliometric method (Recirculating still)

CC(=O)O [acetic acid]
Normal boiling temperature: 118 ± 0.2 °C

C[S+](C)[O-] [dimethyl sulfoxide]
Normal boiling temperature: 188.77 ± 0.2 °C

CN(C)C=O [dimethylformamide]
Normal boiling temperature: 152.6 ± 0.2 °C
